{
  "source": "patent US6872574B2",
  "about": "“Proteomic analysis” (The Scripps Research Institute, priority 2000, dated 2005)",
  "molecules": {"B1": {"name": "STI: Kunitz-type serine protease inhibitor, soybean trypsin inhibitor (protein, UniProt P01070 25-205, looked up)", "Trypsin inhibitor A": "DFVLDNEGNPLENGGTYYILSDITAFGGIRAAPTGNERCPLTVVQSRNELDKGIGTIISSPYRIRFIAEGHPLSLKFDSFAVIMLCVGIPTEWSVVEDLPEGPAVKIGENKDAMDGWFRLERVSDDEFNNYKLVFCPQQAEDDKCGDIGISIDHDDGTRRLVVSKNKPLVVQFQKLDKESL"}, "B2": {"name": "cALDH-I (Rattus norvegicus) (protein)", "chain": "MSSPAQPAVPAPLANLKIQHTKIFINNEWHDSVSGKKFPVLNPATEEVICHVEEGDKADVDKAVKAARQAFQIGSPWRTMDASERGRLLNKLADLMERDRLLLATIEAINGGKVFANAYLSDLGGSIKALKYCAGWADKIHGQTIPSDGDIFTFTRREPIGVCGQIIPWNFPLLMFIWKIGPALSCGNTVVVKPAEQTPLTALHMASLIKEAGFPPGVVNIVPGYGPTAGAAISSHMDVDKVAFTGSTQVGKLIKEAAGKSNLKRVTLELGGKSPCIVFADADLDIAVEFAHHGVFYHQGQCCVAASRIFVEESVYDEFVRKSVERAKKYVLGNPLTQGINQGPQIDKEQHDKILDLIESGKKEGAKLECGGGRWGNKGFFVQPTVFSNVTDEMRIAKEEIFGPVQQIMKFKSIDDVIKRANNTTYGLAAGVFTKDLDRAITVSSALQAGVVWVNCYMILSAQCPFGGFKMSGNGRELGEHGLYEYTELKTVAMKISQKNS", "notes": "made in house; host or cells: E. coli BL-21"}},
  "key": {"rat testis proteome": {"system": "rat testis proteome", "format": "binding"}, "cALDH-I [1]": {"molecular_target": "T1, cALDH-I (Rattus norvegicus, UniProt P51647)", "T1 construct": "made in house; host or cells: E. coli BL-21", "T1 sequence (P51647 1-501)": "B2 chain", "experiment": "cALDH-I enzyme assay and inhibition studies", "format": "biochemical", "method": "(§1) cALDH-I activity was determined at 25° C. in Tris buffer (20 mM Tris-HCl, pH 8, 100 mM NaCl). Purified cALDH-I (0.2 μM) was preincubated with 15 (2.5 μM-15 μM) in DMSO (30 μL, 3% total incubation vol) in a volume of 950 μL for 5 to 45 min. After preincubation of the enzyme with inhibitor, remaining catalytic activity was measured by adding NAD^+ (500 μM final concentration) and propionaldehyde (1 mM final concentration) in 50 μL of buffer. Production of NADH from the oxidation of propionaldehyde was monitored by measuring the change in absorbance at 340 nm for 2 min. In substrate competition assays, purified cALDH-I (0.2 μM) was preincubated with either NAD^+ (50 μM) or propionaldehyde (25 μM) and 10 μM of 15 for 10 minutes at 25° C. in a volume of 950 μL. Remaining catalytic activity was monitored as described above."}, "[2]": {"details": "pH 8"}, "cALDH-I [3]": {"molecular_target": "T1, cALDH-I", "format": "binding"}, "trypsin": {"system": "trypsin", "format": "binding"}, "serine hydrolases": {"system": "serine hydrolases", "format": "binding, rat"}, "[4]": {"substrate": "CCC=O", "experiment": "cALDH-I enzyme assay and inhibition studies", "format": "biochemical, rat", "details": "other: His-tagged recombinant cALDH-I; pH 8.0; 25.0 °C", "method": "as §1"}},
  "data": [
    {"molecule": "O=C(CCCCCCCCCOS(=O)(=O)c1cccc2cccnc12)NCCCCCNC(=O)CCCCC1SCC2NC(=O)NC21", "note": "(stereo not drawn) [Sulfonate 9, 10-((8-Quinolinesulfonyl)oxo)-N-biotinamidopentyldecanamide]", "values": [
      {"measurement": "specific (heat-sensitive) proteome reactivity", "setting": "rat testis proteome", "result": "reacted specifically with a 55 kDa protein, as well as two additional proteins"}
    ]},
    {"molecule": "CCCCCCCCOS(=O)(=O)c1ccccn1", "note": "[Sulfonate 15, 1-(2-Pyridylsulfonyl)oxo-octane]", "values": [
      {"measurement": "average Kobs/[I]", "setting": "cALDH-I [1]", "result": "(9.7+1.8)×10^3 M^−1min^−1"},
      {"measurement": "stability to assay conditions", "setting": "[2]", "result": "stable to the assay conditions employed"}
    ]},
    {"molecule": "O=C(CCCCCCCCCOS(=O)(=O)c1ccccn1)NCCCCCNC(=O)CCCC[C@@H]1SC[C@@H]2NC(=O)N[C@@H]21", "note": "[Sulfonate 1, 10-((2-Pyridylsulfonyl)oxo)-N-biotinamidopentyldecanamide]", "values": [
      {"measurement": "labeling of 55-kDa protein in cALDH-I-transfected cells", "setting": "cALDH-I [3]", "result": "labeled strongly"}
    ]},
    {"molecule": "CCCCCCCCS(=O)(=O)OCCCCCCCCCC(=O)NCCCCCNC(=O)CCCC[C@@H]1SC[C@@H]2NC(=O)N[C@@H]21", "note": "[Sulfonate 7, 10-((Octylsulfonyl)oxo)-N-biotinamidopentyldecanamide]", "values": [
      {"measurement": "specific (heat-sensitive) proteome reactivity", "setting": "rat testis proteome", "result": "All sulfonates except the octylsulfonate 7 labeled at least one member of the testis proteome in a heat-sensitive manner"}
    ]},
    {"molecule": "CS(=O)(=O)OCCCCCCCCCC(=O)NCCCCCNC(=O)CCCCC1SCC2NC(=O)NC21", "note": "(stereo not drawn) [Sulfonate 5, 10-((Methylsulfonyl)oxo)-N-biotinamidopentyldecanamide]", "values": [
      {"measurement": "nonspecific (heat-insensitive) proteome reactivity", "setting": "rat testis proteome", "result": "significant additional reactivity with the preheated proteome"}
    ]},
    {"molecule": "COc1ccc(S(=O)(=O)OCCCCCCCCCC(=O)NCCCCCNC(=O)CCCCC2SCC3NC(=O)NC32)cc1", "note": "(stereo not drawn) [Sulfonate 4, 10-((4-Methoxybenzenesulfonyl)oxo)-N-biotinamidopentyldecanamide]", "values": [
      {"measurement": "nonspecific (heat-insensitive) proteome reactivity", "setting": "rat testis proteome", "result": "significant additional reactivity with the preheated proteome"}
    ]},
    {"molecule": "O=C(CCCCCCCCCOS(=O)(=O)c1cccs1)NCCCCCNC(=O)CCCCC1SCC2NC(=O)NC21", "note": "(stereo not drawn) [Sulfonate 11]", "values": [
      {"measurement": "specific (heat-sensitive) proteome reactivity", "setting": "rat testis proteome", "result": "reacted specifically with a 55 kDa protein, as well as two additional proteins"}
    ]},
    {"molecule": "O=C(CCCCCCCCCOS(=O)(=O)c1ccc([N+](=O)[O-])cc1)NCCCCCNC(=O)CCCCC1SCC2NC(=O)NC21", "note": "(stereo not drawn) [Sulfonate 8, 10-((4-Nitrobenzenesulfonyl)oxo)-N-biotinamidopentyldecanamide]", "values": [
      {"measurement": "specific (heat-sensitive) proteome reactivity", "setting": "rat testis proteome", "result": "reacted specifically with a 55 kDa protein, as well as two additional proteins"}
    ]},
    {"molecule": "B1", "values": [
      {"measurement": "FP-biotin labeling of trypsin preincubated with STI", "setting": "trypsin", "result": "did not label"},
      {"measurement": "FP-biotin labeling intensities in STI-treated sample", "setting": "serine hydrolases", "result": "several, but not all FP-biotin reactive proteins showed significantly lower labeling intensities"}
    ]},
    {"molecule": "B2", "values": [
      {"measurement": "Km", "setting": "[4]", "result": 4.2, "unit": "µM"}
    ]}
  ]
}
